Experimental data as given in ChEMBL document CHEMBL1122434, “Antitumor amino-substituted pyrido[3',4':4,5]pyrrolo[2,3-g]isoquinolines and pyrido[4,3-b]carbazole derivatives: synthesis and evaluation of compounds resulting from new side chain and heterocycle modifications” (J Med Chem, 1983).
pIC50: −log10 of the molar value. Numbered stars: 1 amine (or outer) side, 2 acyl side, 3 side chain; on linkers, the order of the positions; unused ones are H or OH. Bridge positions count the residues as written; N and C are the ends. Square brackets hold non-standard residues; d marks the D form. Peptide text beside a SMILES is read from it. I, II: the chains in the order shown. Actinocin(1to9) = Cc1c2oc3c(C)ccc(C(=O)[*:2])c3nc-2c(C(=O)[*:1])c(N)c1=O; NMeV = CN[C@H](C(=O)O)C(C)C; Sar = CNCC(=O)O

Key:
L1210 [1] = experiment: In vitro cytotoxicity against L1210 cell line as concentration required for 50% inhibition of cell growth; format: functional; conditions: Mus musculus, read-out: ID50 (the source's name)
L1210 [2] = experiment: Cytotoxicity against L1210 tumor cell line, activity is expressed as K (inverse value of drug concentration); format: functional, cell-based; conditions: Mus musculus
[3] = Acute toxicity in mice (LD0) after i.p. administration (highest nontoxic dose); format: organism-based; conditions: mouse, in vivo, ip; read-out: LD0
Mus musculus = experiment: Acute toxicity in mice (LD100) after i.p. administration; format: organism-based; conditions: in vivo, ip
L1210 [4] = experiment: Antitumor activity against L1210 leukemia cells measured as range of death at 15 mg/kg; value may range from 12 to 19; format: functional, Mus musculus
L1210 [5] = experiment: Antitumor activity against L1210 leukemia cells measured as Median survival time at 15 mg/kg; format: functional, Mus musculus
L1210 [6] = experiment: Antitumor activity against L1210 leukemia cells measured as Median survival time at 20 mg/kg; format: functional, Mus musculus
L1210 [7] = experiment: Antitumor activity against L1210 leukemia cells measured as range of death at 20 mg/kg; value may range from 14 to 17; format: functional, Mus musculus
L1210 [8] = experiment: Antitumor activity against L1210 leukemia cells measured as Median survival time at 10 mg/kg; format: functional, Mus musculus
L1210 [9] = experiment: Antitumor activity against L1210 leukemia cells measured as percent increase in life span (% ILS) at 10 mg/kg; format: functional; conditions: Mus musculus
L1210 [10] = experiment: Antitumor activity against L1210 leukemia cells measured as range of death at 10 mg/kg; value may range from 8 to 28; format: functional, Mus musculus
L1210 [11] = experiment: Antitumor activity against L1210 leukemia cells measured as range of death at 10 mg/kg; value may range from 14 to 19; format: functional, Mus musculus
L1210 [12] = experiment: Antitumor activity against L1210 leukemia cells measured as range of death at 20 mg/kg; value may range from 14 to 25; format: functional, Mus musculus
L1210 [13] = experiment: Antitumor activity against L1210 leukemia cells measured as Median survival time at 25 mg/kg; format: functional, Mus musculus
L1210 [14] = experiment: Antitumor activity against L1210 leukemia cells measured as range of death at 25 mg/kg; value may range from 14 to 19; conditions: Mus musculus
L1210 [15] = experiment: Antitumor activity against L1210 leukemia cells measured as Median survival time at 2.5 mg/kg; format: functional, Mus musculus
L1210 [16] = experiment: Antitumor activity against L1210 leukemia cells measured as range of death at 2.5 mg/kg; value may range from 14 to 19; format: functional, Mus musculus
L1210 [17] = experiment: Antitumor activity against L1210 leukemia cells measured as range of death at 10 mg/kg; value may range from 16 to 42; format: functional, Mus musculus
L1210 [18] = experiment: Antitumor activity against L1210 leukemia cells measured as range of death at 20 mg/kg; value may range from 15 to 19; format: functional, Mus musculus
L1210 [19] = experiment: Antitumor activity against L1210 leukemia cells measured as range of death at 10 mg/kg; format: functional, Mus musculus
L1210 [20] = experiment: Antitumor activity against L1210 leukemia cells measured as range of death at 10 mg/kg; value may range from 16 to 20; conditions: Mus musculus
L1210 [21] = experiment: Antitumor activity against L1210 leukemia cells measured as range of death at 10 mg/kg; value may range from 8 to 20; format: functional, Mus musculus
L1210 [22] = experiment: Antitumor activity against L1210 leukemia cells measured as range of death at 20 mg/kg; value may range from 9 to 12; format: functional, Mus musculus
L1210 [23] = experiment: Antitumor activity against L1210 leukemia cells measured as range of death at 2.5 mg/kg; value may range from 12 to 19; format: functional, Mus musculus
L1210 [24] = experiment: Antitumor activity against L1210 leukemia cells measured as range of death at 3.75 mg/kg; value may range from 15 to 21; format: functional, Mus musculus
L1210 [25] = experiment: Antitumor activity against L1210 leukemia cells measured as Median survival time at 3.75 mg/kg; format: functional, Mus musculus
L1210 [26] = experiment: Antitumor activity against L1210 leukemia cells measured as range of death at 15 mg/kg; value may range from 7 to 44; conditions: Mus musculus
L1210 [27] = experiment: Antitumor activity against L1210 leukemia cells measured as range of death at 15 mg/kg; value may range from 19 to 35; format: functional, Mus musculus
L1210 [28] = experiment: Antitumor activity against L1210 leukemia cells measured as range of death at 10 mg/kg; value may range from 12 to 25; format: functional, Mus musculus
L1210 [29] = experiment: Antitumor activity against L1210 leukemia cells measured as range of death at 12 mg/kg; value may range from 12 to 14; format: functional, Mus musculus
L1210 [30] = experiment: Antitumor activity against L1210 leukemia cells measured as Median survival time at 12 mg/kg; format: functional, Mus musculus
L1210 [31] = experiment: Antitumor activity against L1210 leukemia cells measured as range of death at 12.5 mg/kg; value may range from 12 to 27; format: functional, Mus musculus
L1210 [32] = experiment: Antitumor activity against L1210 leukemia cells measured as Median survival time at 12.5 mg/kg; format: functional, Mus musculus

Structure (SMILES) | pIC50 (L1210 [1]) | K (L1210 [2]) [µM⁻¹] | MTD [3] [mg/kg] | LD100 (Mus musculus) [mg/kg] | MST (L1210 [8]) [days] | ILS at 10 mg/kg (L1210 [9]) [%] | other results
CCN(CC)CCCNc1nccc2c(C)c3[nH]c4ccc(OC)cc4c3cc12 | 5.30 | 0.2 | 20 | 40 |  |  | Range of death (L1210 [4]): 19 days; MST (L1210 [5]): 14.3 days
Cc1c2ccnc(NCC(O)CO)c2cc2c3c[nH]ccc-3nc12 (stereo not given) | 6.60 | 4 | 40 | 60 |  |  | MST (L1210 [6]): 16 days; Range of death (L1210 [7]): 17 days
CCNCCCNc1nccc2c(C)c3[nH]c4ccc(OC)cc4c3c(C)c12 | 7.00 | 10 | 16 | 20 | 20 | 84 | Range of death (L1210 [10]): 28 days
CCN(CC)CCCNc1nccc2c(C)c3c(c(C)c12)c1cc(O)ccc1n3C | 6.70 | 5 | 12 | 25 | 16.1 | 66.5 | Range of death (L1210 [11]): 19 days
CCN(CC)CCCNc1nccc2c(C)c3[nH]c4ccncc4c3cc12 [PAZELLIPTINE] | 7.70 | 50 | 25 | 30 |  |  | MST (L1210 [6]): 20.5 days; Range of death (L1210 [12]): 25 days
Cc1c2ccnc(NCCCN(CCO)CCO)c2cc2c3c[nH]ccc-3nc12 | 6.22 | 1.7 | 30 | 100 |  |  | MST (L1210 [13]): 15.5 days; Range of death (L1210 [14]): 19 days
CCN(CC)CCCNc1nccc2c(C)c3[nH]c4ccc(O)cc4c3c(C)c12 | 7.52 | 33 | 3 | 10 |  |  | MST (L1210 [15]): 16.5 days; Range of death (L1210 [16]): 19 days
CCNCCCNc1nccc2c(C)c3[nH]c4ccncc4c3cc12 | 7.00 | 10 | 20 | 30 | 25 | 114 | Range of death (L1210 [17]): 42 days
CCN(CCCN)CCCNc1nccc2c(C)c3[nH]c4ccncc4c3cc12 | 6.70 | 5 | 20 | 40 |  |  | MST (L1210 [6]): 17 days; Range of death (L1210 [18]): 19 days
COc1ccc2[nH]c3c(C)c4ccnc(NCCCN(CCCl)CCCl)c4cc3c2c1 | 6.70 | 5 | 15 | 20 | 13.6 | 26 | Range of death (L1210 [19]): 12 days
CCN(CC)CCCNc1nccc2c(C)c3[nH]c4ccncc4c3c(C)c12 | 8.15 | 143 | 10 | 20 | 16.8 | 46 | Range of death (L1210 [20]): 20 days
Cc1c2c(NCCCN(C)C)nccc2c(C)c2c1c1cc(O)ccc1n2C | 7.52 | 33 | 10 | 50 | 16.3 | 68 | Range of death (L1210 [21]): 20 days
CCN(CC)CCCNc1nccc2c(C)c3[nH]c4ccc(O)cc4c3cc12 | 7.70 | 50 | 2.5 | 7 |  |  | MST (L1210 [15]): 16.4 days; Range of death (L1210 [16]): 19 days
CCN(CC)CCNc1nccc2c(C)c3c(cc12)c1cc(OC)ccc1n3C | 5.70 | 0.5 | 20 | 30 |  |  | MST (L1210 [6]): 11 days; Range of death (L1210 [22]): 12 days
CCNCCCNc1nccc2c(C)c3c(c(C)c12)c1cc(O)ccc1n3C | 7.70 | 50 | 10 | 25 |  |  | Range of death (L1210 [23]): 19 days; MST (L1210 [15]): 14.5 days
Cc1c2oc3c(C)ccc(C(=O)N[C@@H]4C(=O)N[C@H](C(C)C)C(=O)N5CCC[C@H]5C(=O)N(C)CC(=O)N(C)[C@@H](C(C)C)C(=O)O[C@@H]4C)c3nc-2c(C(=O)N[C@@H]2C(=O)N[C@H](C(C)C)C(=O)N3CCC[C@H]3C(=O)N(C)CC(=O)N(C)[C@@H](C(C)C)C(=O)O[C@@H]2C)c(N)c1=O [DACTINOMYCIN] (I: T[dV]P[Sar][NMeV] / II: T[dV]P[Sar][NMeV]; ester I:1-I:C, II:1-II:C; linker I:N-II:N via Actinocin(1to9)) | 9.00 | 1000 |  |  |  |  | 
COc1ccc2[nH]c3c(C)c4ccnc(NCCCN(CCO)CCO)c4c(C)c3c2c1 | 6.40 | 2.5 | 10 | 15 |  |  | Range of death (L1210 [24]): 21 days; MST (L1210 [25]): 18.4 days
Cc1c2ccnc(NCCCN(C)C)c2c(C)c2c1[nH]c1ccncc12 | 8.10 | 125 | 15 | 20 |  |  | Range of death (L1210 [26]): 44 days; MST (L1210 [5]): 25.2 days
CCN(CC)CCCNc1nccc2c(C)c3[nH]c4ccc(OC)cc4c3c(C)c12 [RETELLIPTINE] | 7.52 | 30 | 15 | 60 |  |  | Range of death (L1210 [27]): 35 days; MST (L1210 [5]): 29.5 days
CCNCCCNc1nccc2c(C)c3[nH]c4ccc(OC)cc4c3cc12 | 6.22 | 1.7 | 20 | 30 | 14.8 | 26 | Range of death (L1210 [28]): 25 days
CCN(CC)CCCNc1nccc2c(C)c3c(cc12)c1cc(O)ccc1n3C | 7.22 | 16 | 12.5 | 25 |  |  | Range of death (L1210 [29]): 14 days; MST (L1210 [30]): 13 days
CCN(CC)CC(O)CNc1nccc2c(C)c3[nH]c4ccncc4c3cc12 (stereo not given) | 7.30 | 20 | 25 | 40 |  |  | Range of death (L1210 [31]): 27 days; MST (L1210 [32]): 16.3 days
